Counter-ions that a name gives are not always drawn. Like-named read-outs stand apart in the source and are kept apart here.
Legend:
[1] = molecular target: T1, human NTCP (Homo sapiens, UniProt Q14973); assay: Screening fluorescent competitive Myrcludex B-FITC binding assay (96-well, 10 µM drug)
T1 sequence (Q14973 1-349): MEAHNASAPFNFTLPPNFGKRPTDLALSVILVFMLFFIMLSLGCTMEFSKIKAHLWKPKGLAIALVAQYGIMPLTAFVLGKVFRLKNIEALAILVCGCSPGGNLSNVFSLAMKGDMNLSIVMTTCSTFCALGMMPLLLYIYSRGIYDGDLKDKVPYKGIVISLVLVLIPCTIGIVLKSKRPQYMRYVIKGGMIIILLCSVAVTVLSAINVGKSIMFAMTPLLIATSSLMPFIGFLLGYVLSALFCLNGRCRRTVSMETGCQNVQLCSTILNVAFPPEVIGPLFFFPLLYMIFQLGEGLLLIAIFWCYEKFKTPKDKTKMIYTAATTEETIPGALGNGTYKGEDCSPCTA

[2] = molecular target: T1, human NTCP; assay: Screening taurocholate uptake assay (96-well, [14C]taurocholate, 10 µM drug)
[3] = Prestwick library screen, taurocholate uptake, 10 µM drug
[4] = Prestwick library screen, 10 µM drug, B-score of Myrcludex B-FITC binding
[5] = Prestwick library screen, 10 µM drug, B-score of taurocholate uptake
[6] = combined ranking from functional and binding assay B-scores
[7] = screen, 10 µM drug, Myrcludex B-FITC binding
[8] = combined ranking from functional and binding screening assays
[9] = screen, 10 µM drug, taurocholate uptake
[10] = Prestwick library screen, Myrcludex B-FITC binding, 10 µM drug
[11] = ranking score beside the functional and binding assay B-scores of the screen

Compound | B-score functional assay [2, 3] | B-score binding assay [1, 7] | Ranking score [2, 8] | B-score functional assay [2, 9] | B-score binding assay [1, 10] | Ranking score [2, 11] | also measured
CCC(=O)O[C@H]1CC[C@H]2[C@@H]3CCC4=CC(=O)CC[C@]4(C)[C@H]3CC[C@]12C [Testosterone propionate] | – | – | – | – | – | – | B-score binding assay [1]: 0.252; B-score functional assay [2]: -0.451; Ranking score [2]: 567.732
CCCCC(=O)N(Cc1ccc(-c2ccccc2-c2nnn[nH]2)cc1)[C@H](C(=O)O)C(C)C [Valsartan] | 0.156 | – | – | – | – | – | B-score binding assay [1]: 0.016; Ranking score [2]: 721.211
C[C@]12CC[C@H]3[C@@H](CCC4=CC(=O)CC[C@@H]43)[C@@H]1CC[C@@H]2O [Nandrolone] | – | – | – | – | – | – | B-score binding assay [1]: 0.982; B-score functional assay [2]: 0.05; Ranking score [2]: 852.366
CCOC(=O)c1cncn1[C@H](C)c1ccccc1 [Etomidate] | – | – | – | – | – | – | B-score binding assay [1, 4]: -0.068; B-score functional assay [2, 5]: 5.522; Ranking score [2, 6]: 852.333
NS(=O)(=O)Cc1noc2ccccc12 [Zonisamide] | – | – | – | – | – | – | B-score binding assay [1, 4]: 0.365; B-score functional assay [2, 5]: 3.016; Ranking score [2, 6]: 1038.21
O=C(O)CN(CCN(CC(=O)O)CC(=O)O)CCN(CC(=O)O)CC(=O)O [Pentetic acid] | – | -0.525 | 406.409 | -0.313 | – | – | –
CN1CCN2c3ccccc3Cc3ccccc3C2C1.Cl (stereo not drawn) [Mianserine hydrochloride] | 0.041 | – | – | – | 0.761 | 825.955 | –
COc1ccc2c(c1)C(=O)N(CCc1ccc(S(=O)(=O)NC(=O)NC3CCCCC3)cc1)C(=O)C2(C)C [Gliquidone] | – | 1.024 | 336.107 | -2.316 | – | – | –
COc1ccc2c(c1)c(CC(=O)OCC(=O)O)c(C)n2C(=O)c1ccc(Cl)cc1 [Acemetacin] | 0.011 | – | – | – | 0.865 | 813.791 | –
Oc1c(Cl)cc(Cl)c(Cl)c1Cc1c(O)c(Cl)cc(Cl)c1Cl [Hexachlorophene] | – | – | – | – | – | – | B-score binding assay [1]: 1.48; B-score functional assay [2]: -8.47; Ranking score [2]: 82.4136
CCOc1ccc2c(c1)C(C)=CC(C)(C)N2 [Ethoxyquin] | – | -1.217 | 406.463 | 0.194 | – | – | –
O=C1CCC(N2C(=O)c3ccccc3C2=O)C(=O)N1 (stereo not drawn) [Thalidomide] | – | – | – | – | – | – | B-score binding assay [1, 4]: 2.398; B-score functional assay [2, 5]: 0.111; Ranking score [2, 6]: 964.883
CCN(CC)C(=O)N1CCN(C)CC1 [Diethylcarbamazine citrate] | 0.671 | – | – | – | -0.121 | 718.594 | –
Cl.O=C(O)/C=C/c1ccc(Cn2ccnc2)cc1 [Ozagrel hydrochloride] | – | – | – | – | – | – | B-score binding assay [1, 4]: 1.332; B-score functional assay [2, 5]: 1.392; Ranking score [2, 6]: 1118.41
CC(=O)CC(c1ccc([N+](=O)[O-])cc1)c1c(O)c2ccccc2oc1=O (stereo not drawn) [Acenocoumarol] | – | – | – | – | – | – | B-score binding assay [1, 4]: 0.383; B-score functional assay [2, 5]: 0.873; Ranking score [2, 6]: 950.096
CCCCC[C@H](O)/C=C/[C@H]1[C@H](O)CC(=O)[C@@H]1CCCCCCC(=O)O [Alprostadil] | 0.966 | – | – | – | 0.02 | 841.475 | –
CCN(CC)Cc1cc(Nc2ccnc3cc(Cl)ccc23)ccc1O.Cl.Cl.O.O [Amodiaquin dihydrochloride dihydrate] | -0.477 | – | – | – | 1.445 | 658.143 | –
C[N+]1(C)[C@@H]2CC[C@H]1C[C@@H](OC(=O)C(CO)c1ccccc1)C2 (stereo partly drawn) [Methylatropine nitrate] | – | -1.066 | 357.004 | -0.076 | – | – | –
CC(=O)OCC(=O)[C@@]1(OC(C)=O)[C@@H](C)C[C@H]2[C@@H]3C[C@H](F)C4=CC(=O)C=C[C@]4(C)[C@@]3(F)[C@@H](O)C[C@@]21C [Diflorasone Diacetate] | – | -1.118 | 327.658 | -0.194 | – | – | –

Compound | B-score functional assay [2, 3] | B-score binding assay [1, 7] | Ranking score [2, 8] | B-score functional assay [2, 9] | B-score binding assay [1, 10] | Ranking score [2, 11] | also measured
CN[C@H]1CC[C@@H](c2ccc(Cl)c(Cl)c2)c2ccccc21 [Sertraline] | – | -1.357 | 426.035 | 0.805 | – | – | –
CCCc1cc(C(N)=S)ccn1 [Prothionamide] | -0.17 | – | – | – | 2.241 | 776.121 | –
CCN(CC)C(C)CN1c2ccccc2Sc2ccccc21 (stereo not drawn) [Ethopropazine hydrochloride] | 0.753 | – | – | – | -0.236 | 687.443 | –
C[C@H](N)[C@H](O)c1ccc(O)c(O)c1 [Levonordefrin] | – | -1.559 | 346.693 | 0.177 | – | – | –
NC(=O)N1c2ccccc2CC(=O)c2ccccc21 [Oxcarbazepine] | 0.032 | – | – | – | 0.508 | 789.959 | –
COc1ccc(C(=O)N2CCCC2=O)cc1 [Aniracetam] | – | -0.157 | 340.074 | -1.196 | – | – | –
O=C1c2cccc3c2[C@H](CCC3)CN1[C@@H]1CN2CCC1CC2 [Palonosetron hydrochloride] | 1.95 | – | – | – | -0.051 | 833.96 | –
CC(C)(C)NC(=O)[C@@H]1CN(Cc2cccnc2)CCN1C[C@@H](O)C[C@@H](Cc1ccccc1)C(=O)N[C@H]1c2ccccc2C[C@H]1O [Indinavir sulfate] | -0.197 | – | – | – | 1.008 | 710.601 | –
COc1ccc(C(=O)c2ccccc2O)c(O)c1 [Dioxybenzone] | – | -0.95 | 401.91 | 0.002 | – | – | –
NCCc1cc[nH]n1 [Betazole hydrochloride] | 0.019 | – | – | – | 1.024 | 836.299 | –
CCN(CCCc1ccccc1)CCCc1ccccc1.O=C(O)CC(O)(CC(=O)O)C(=O)O [Alverine citrate salt] | – | -0.052 | 318.591 | -1.552 | – | – | –
CCCC[N+]1(C)[C@@H]2C[C@@H](OC(=O)[C@H](CO)c3ccccc3)C[C@H]1[C@@H]1O[C@@H]12.[Br-] (stereo partly drawn) [Butylscopolammonium (n-) bromide] | – | -0.108 | 409.241 | -0.739 | – | – | –
Cc1c(-c2ccccc2)oc2c(C(=O)OCCN3CCCCC3)cccc2c1=O [Flavoxate hydrochloride] | -0.169 | – | – | – | 1.224 | 734.394 | –
Cyanocobalamin | 0.223 | – | – | – | 0.087 | 774.968 | –
Cc1cc(C2CCCCC2)n(O)c(=O)c1.NCCO [Ciclopirox ethanolamine] | – | – | – | – | – | – | B-score binding assay [1, 4]: 1.631; B-score functional assay [2, 5]: 0.776; Ranking score [2, 6]: 1078.72
O=C1CCc2cc(OCCCCc3nnnn3C3CCCCC3)ccc2N1 [Cilostazol] | – | -0.418 | 446.637 | -0.174 | – | – | –
CCCCC1C(=O)N(c2ccccc2)N(c2ccc(O)cc2)C1=O (stereo not drawn) [Oxyphenbutazone] | – | – | – | – | – | – | B-score binding assay [1, 4]: 0.23; B-score functional assay [2, 5]: 2.782; Ranking score [2, 6]: 1000.56
CC(CN(C)C)CN1c2ccccc2Sc2ccccc21.CC(CN(C)C)CN1c2ccccc2Sc2ccccc21.O=C(O)C(O)C(O)C(=O)O (stereo not drawn) [Trimeprazine tartrate] | – | -0.763 | 352.65 | -0.375 | – | – | –

Source: paper PMC5681660, “Reduced hepatitis B and D viral entry using clinically applied drugs as novel inhibitors of the bile acid transporter NTCP” (Scientific Reports, 2017)
